Measured values published in the supplement of paper PMC7600603.

Tests used:
DLD1 NRF2-WT [1] = experiment: drug sensitivity score (DSS) cytotoxicity (DSS score); higher = more toxic; extreme values may be limits of the assay; settings: 72 h; CellTox Green cytotoxicity
Summary of the method: (§1)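 After growth in DMEM with 10% FBS, NRF2 wild-type and CRISPR-edited isogenic DLD1 cells were seeded in 384-well plates and given library compounds at 5 concentrations across a 10,000-fold range. Fluorescence from CellTox Green was taken on a Pherastar FS reader after 72 h and normalised against vehicle wells and 100-μM positive-control wells. From logistic dose-response fits of cytotoxicity came the TC50 and the drug sensitivity score, a normalised area under the curve.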

DLD1 NRF2-GOF [2] = experiment: as above; settings: 72 h; CellTox Green cytotoxicity
Summary of the method: as §1

DLD1 NRF2-WT [3] = settings: 72 h; CellTiter-Glo viability
Summary of the method: (§2)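 Isogenic DLD1 colorectal cancer cells, either NRF2 wild-type or CRISPR gain-of-function, were grown in DMEM with 10% FBS. They were exposed in 384-well plates to library compounds at 5 concentrations spanning a 10,000-fold range. After 72 h, viability was read by CellTiter-Glo on a Pherastar FS reader and normalised to vehicle wells and 100-μM positive-control wells. EC50 and drug sensitivity score (a normalised area under the curve) came from four-parameter logistic dose-response fits.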

DLD1 NRF2-WT [4] = experiment: drug sensitivity score (DSS) viability (DSS score); higher = more sensitive; extreme values may be limits of the assay; settings: 72 h; CellTiter-Glo viability
Summary of the method: as §2

DLD1 NRF2-GOF [5] = experiment: as above; settings: 72 h; CellTiter-Glo viability
Summary of the method: as §2

DLD1 NRF2-WT [6] = experiment: TC50 cytotoxicity; higher = less toxic; settings: 72 h; CellTox Green cytotoxicity
Summary of the method: as §1

DLD1 NRF2-GOF [7] = experiment: TC50 cytotoxicity; higher = less toxic; settings: 72 h; CellTox Green cytotoxicity
Summary of the method: as §1

EC50 viability (DLD1 NRF2-WT [3]) [µM]	Compound	drug sensitivity score (DLD1 NRF2-WT [1])	drug sensitivity score (DLD1 NRF2-GOF [2])	drug sensitivity score (DLD1 NRF2-WT [4])	drug sensitivity score (DLD1 NRF2-GOF [5])	TC50 cytotoxicity (DLD1 NRF2-WT [6]) [µM]	TC50 cytotoxicity (DLD1 NRF2-GOF [7]) [µM]
> 50	Cc1nn(C)c(COc2ccc(N3CCN(S(=O)(=O)N(C)C)CC3)cc2)c1-c1cccc2c(CCCOc3cccc4ccccc34)c(C(=O)O)n(CCN3CCOCC3)c12	0	0	1.9	2.1	> 50	> 50
> 10	O=c1[nH]c(C2CCCN2)nc2c1oc1ccc(Cl)cc12 (centres undefined)	0	0	0.9	0.7	> 10	> 10
0.0595	CC(C)(O)CC(=O)NCCn1ccc2ncnc(Nc3ccc(Oc4cccc(C(F)(F)F)c4)c(Cl)c3)c21 [TAK-285]	0	0	5.4	3.7	> 2.5	> 2.5
0.109	Cn1cncc1[C@@](N)(c1ccc(Cl)cc1)c1ccc2c(c1)c(-c1cccc(Cl)c1)cc(=O)n2C [Tipifarnib]	0	0	5.4	6.2	> 10	> 10
4.17	CC[C@H](CO)Nc1nc(NCc2ccccc2)c2ncn(C(C)C)c2n1 [Seliciclib]	0	0	1.1		> 10	> 10
> 10	CC[C@H](C)C(=O)O[C@H]1C[C@@H](C)C=C2C=C[C@H](C)[C@H](CC[C@@H]3C[C@@H](O)CC(=O)O3)[C@H]21 [Lovastatin]	0	0	0	5.2	> 10	> 10
0.138	COCCNCc1ccc(-c2cc3nccc(Oc4ccc(NC(=O)C5(C(=O)Nc6ccc(F)cc6)CC5)cc4F)c3s2)nc1 [Sitravatinib]	0	0	4.6	5.5	> 2.5	> 2.5
> 10	COc1cc(Nc2ncc(F)c(Nc3ccc4c(n3)NC(=O)C(C)(C)O4)n2)cc(OC)c1OC [Tamatinib]	0	0	1		> 10	> 10
0.238	O=C(Nc1cccc(NC(=O)c2cccc(O)c2O)c1)c1cccc(O)c1O [MST-312]	0	0	10.4		> 10	> 10
3.95	CC1(C)CCC(c2ccc(Cl)cc2)=C(CN2CCN(c3ccc(C(=O)NS(=O)(=O)c4ccc(N[C@H](CCN5CCOCC5)CSc5ccccc5)c(S(=O)(=O)C(F)(F)F)c4)cc3)CC2)C1 [Navitoclax]	4	2.1	2.1		1.55	1.89
0.0058	CC(C)C[C@H](NC(=O)[C@H](Cc1ccccc1)NC(=O)c1cnccn1)B(O)O [Bortezomib]	27.2	23.1	27.1		0.0057	0.0117
1.69	Cc1nc(C(=O)NCC(=O)O)c(O)c2ccc(Oc3ccccc3)cc12 [Roxadustat]	0	0	2.5		> 10	> 10

Second part, the compound before the results:

Compound	EC50 viability (DLD1 NRF2-WT [3]) [µM]	drug sensitivity score (DLD1 NRF2-WT [1])	drug sensitivity score (DLD1 NRF2-GOF [2])	drug sensitivity score (DLD1 NRF2-WT [4])	drug sensitivity score (DLD1 NRF2-GOF [5])	TC50 cytotoxicity (DLD1 NRF2-WT [6]) [µM]	TC50 cytotoxicity (DLD1 NRF2-GOF [7]) [µM]
COc1cc2/c(=N/c3ccc(Br)cc3F)nc[nH]c2cc1OCC1CCN(C)CC1 [Vandetanib]		0	0	6.9	2.3	> 1	> 1
C[C@]12C=CC(=O)C=C1CC[C@@H]1[C@@H]2[C@@H](O)C[C@@]2(C)[C@H]1CC[C@]2(O)C(=O)CO [Prednisolone]		0	0		1	> 10	> 10
C[C@H]1C[C@@H]2[C@H]([C@@H](O)C[C@@]3(C)[C@H]2CC[C@]3(O)C(=O)CO)[C@@]2(C)C=CC(=O)C=C12 [Methylprednisolone]		0	0		2.9	> 10	> 10
CO[C@H]1C[C@@H]2CC[C@@H](C)[C@@](O)(O2)C(=O)C(=O)N2CCCC[C@H]2C(=O)O[C@H]([C@H](C)C[C@@H]2CC[C@@H](OCCO)[C@H](OC)C2)CC(=O)[C@H](C)/C=C(\C)[C@@H](O)[C@@H](OC)C(=O)[C@H](C)C[C@H](C)/C=C/C=C/C=C/1C [Everolimus]	0.0117	0	0	4.7	2.5	> 0.1	> 0.1
Clc1ccccc1C(c1ccccc1)(c1ccccc1)n1cccn1 [TRAM-34]	> 1			2.2	6.4		
CC1(C)CNc2cc(NC(=O)c3cccnc3NCc3ccncc3)ccc21 [Motesanib]	0.565	0	0	4.5	3.1	> 10	> 10
COc1cc(OC2CCN(C)CC2)ccc1Nc1ncc2c(n1)n(C1CCCC1)c(=O)n2C [AZ 3146]	1.25	2.5	1.6	8		1.58	> 10
CCCCCCCCCCCCCCCCCCOP(=O)([O-])OC1CC[N+](C)(C)CC1 [Perifosine]	> 2.5	0.9	0.6	0.3		> 2.5	> 2.5
C=C1C[C@@H]2CC[C@@]34C[C@H]5O[C@H]6[C@@H](O3)[C@H]3O[C@H](CC[C@@H]3O[C@H]6[C@H]5O4)CC(=O)C[C@@H]3[C@@H](OC)[C@@H](C[C@H](O)CN)O[C@H]3C[C@H]3O[C@@H](CC[C@@H]1O2)C[C@@H](C)C3=C [Eribulin]	0.0051	3.3	4.4	22.6		> 1	> 1
